The test system of one data set is rats. The settings on record: rat, in vivo; cited from earlier work.
The conditions of data set [1]: cited from earlier work.
The test system of another data set is skin. Nature of the data set: Preliminary safety evaluation of topical exposure (SLS or UVB provoked skin), methodological study on humans. Format: in vivo, human. The source says:
Skin irritation and dermatitis is a common problem among health care professionals due to frequent washing. We have utilized two well-established skin irritation models to investigate the effect of topically administered uridine or isomalt on skin physiology including measurement of dermal blood flow. Isomalt consists of 1,6-glucopyranosyl-D-sorbitol (GPS, isomaltitol) and 1,1-glucopyranosyl-D-mannitol (GPM) in a 1:1 ratio. The methodological study involves the study of various physiological parameters, such as dermal blood flow and visual assessment of erythema, subsequent to provocation by either exposure to UVB light or Sodium Lauryl Sulphate (SLS) and the effects of isomalt and uridine on these parameters. Only a very small area of the skin was exposed to the irritants UVB or SLS. The methodological study has been approved by the Medical Products Agency, Sweden and the Regional Ethical Review Board, Linköping, Sweden.
UVB provocation with a divergent beam produces a circular, radially fading skin erythema, the diameter of which corresponds to the minimal erythemal dose. […] SLS, which is a detergent, creates a local skin irritation mainly by disturbing the skins barrier function. A methodological study has been performed, both to evaluate the effects of uridine or isomalt on skin UVB-induced erythema and SLS irritation. […]

In the case of `OC[C@H](O)[C@@H](O)[C@H](O)[C@H](O)CO[C@H]1O[C@H](CO)[C@@H](O)[C@H](O)[C@H]1O` [isomaltitol, 6-O-α-D-glucopyranosyl-D-sorbitol], the toxic effect result in the data set on rats is on record as “doesn't seem to have any toxic effect”. Also, the “rise in blood glucose and insulin levels” value in data set [1] (compared to sugars and other carbohydrates) is “only a very small rise”. Moreover, in data set [1] (in vivo), the absorption entry is “very slow and limited”.
Turning to `O=c1ccn([C@@H]2O[C@H](CO)[C@@H](O)[C@H]2O)c(=O)[nH]1` [uridine], the “untoward effects such as exacerbated skin irritation or itching related to the exposure” value in the data set with skin (saturated solution, topical exposure for 24 hours, all individuals) is recorded as “no untoward effects”.
Consider isomalt, for which, in the data set with skin (in vivo), the “untoward effects such as exacerbated skin irritation or itching related to the exposure” value is reported as “no untoward effects”.
